# Results taken from patent US20250041387A1, “POLYPEPTIDE SEQUENCE OF KDM6B AND APPLICATION OF KDM6B IN REGULATING AND CONTROLLING FUNCTION OF MESENCHYMAL STEM CELL” (BEIJING STOMATOLOGICAL HOSPITAL, CAPITAL MEDICAL UNIVERSITY, priority 2021, published 2025).
# Assays:
# [1] = test system: senescent bone marrow mesenchymal stem cells; assay: ALP activity of senescent BMSCs of aged mice; format: cell-based, C57BL/6 mice; conditions: 3 days of osteogenic induction, FIG. 5B
# Description: • (1) Osteogenic culture medium was purchased from Invitrogen, USA. • (2) Quantification of alkaline phosphatase (ALP) activity • 1) After 3 days of osteogenic induction, the culture medium was discarded, and the cells were washed with PBS twice. • 2) The cells were added with 500 μL of lysis buffer, and incubated at 37° C. for 15 minutes. • 3) The cells were scraped, transferred into a 1.5 mL EP tube, and centrifuged at 14000 rpm at 4° C. for 10 minutes. The supernatant was transferred into a new EP tube to measure the protein concentration, and the procedure was the same as that in Western blot. • 4) The capsule from the alkaline phosphatase kit (Stock substrate Sol.) was dissolved with 5 mL of distilled water under vigorous shaking, and mixed well. • 5) 50 μL of ALP buffer was added to 50 μL of Stock substrate Sol to obtain a mixture. 100 μL of the mixture was added to each well in a 96-well plate, then added with 10 μL of sample, and mixed well. A blank well without sample added was set for zero adjustment. • 6) The plate was incubated at 37° C. for 15 minutes, and the OD value was measured at 405 nm.
# Result of ALP activity was calculated according to Y/incubation time/protein concentration. • (3) Alizarin red staining • 1) After two weeks of osteogenic induction, the culture medium was discarded. The cells were washed three times with PBS pre-cooled at 4° C., and fixed with 70% ethanol at 4° C. for 1 hour. • 2) The cells were washed 2 times with double distilled water, and stained with 40 mM alizarin red solution (pH 4.2) at room temperature for 10 minutes. The staining was observed by naked eyes. • 3) The cells were washed 3 times with double-distilled water. • (4) Determination of Ca^2+ concentration
# [2] = test system: telomerase reverse transcriptase; assay: ELISA assay of telomerase reverse transcriptase in SCAPs; format: cell-based, human; conditions: SCAPs treated with polypeptide, FIG. 8B
# Description: • (1) Pre-detection preparation: A standard curve was calculated and plotted using a standard concentration gradient of 400 ng/mL, 200 ng/ml, 100 ng/ml, 50 ng/mL, 25 ng/ml, 12.5 ng/mL, 6.25 ng/mL, and 0 ng/mL. • (2) 100 μL of the standards and samples were added to each well of a 96-well plate. The plate was covered with a provided sealing film, and incubated at 37° C. for 2 hours. The name of the sample was noted on the surface of the sealing film. • (3) The sample in each well was discarded and spin-dried without washing. • (4) 100 μL of Biotin-antibody (1×) was added to each well. The plate was covered with a sealing film, and incubated at […] for 1 hour. If Biotin-antibody (1×) appeared cloudy, Biotin-antibody was warmed to room temperature and stirred gently until clear. • (5) The sample in each well was discarded. Each well was added with 200 μL of Wash Buffer using a multichannel pipette and left to stand for 2 minutes for washing. This process was repeated twice for a total of three times of washing. Complete removal of liquid at each step was critical for good performance. After the last time of washing, the Wash Buffer was discarded, and the 96-well plate was turned upside down and dried with a clean paper. • (6) 100 μL of HRP-avidin (1×) was added to each well. The 96-well microtiter plate was covered with a new sealing film and incubated at 37° C. for 1 hour. • (7) The process of discarding samples and washing in […] was repeated 5 times. • (8) 90 μL of TMB Substrate was added to each well. The plate was incubated in the dark at 37° C. for 15-30 minutes. 50 μL of Stop Solution was added to each well, and the plate was gently taped to mix solution evenly. • (9) The optical density of each well was detected at 450 nm within 5 min using a microtiter plate reader.
# [3] = test system: stem cells from apical papilla; assay: β-gal staining and quantification in SCAPs; format: cell-based, human; conditions: SCAPs treated with polypeptide, FIG. 8C, D
# Description: Prior to the start of the experiment, the GENMED staining solution (Reagent E) in the kit was taken out of the refrigerator at −20° C., and thawed in an ice bath. Then 9.5 mL of GENMED dilution (Reagent D) was added into a 15 ml conical centrifuge tube, added with 500 μL of GENMED staining solution (Reagent E), mixed well, and then preheated in a 37° C. thermostatic sink. The obtained mixture was labeled as GENMED staining working solution.
# [4] = test system: senescent mouse bone marrow mesenchymal stem cells; assay: Senescence markers β-gal and P16 in senescent mouse BMSCs; format: cell-based
# [5] = target: KDM6B/WDR5 protein complex (Homo sapiens, UniProt P61964); assay: Co-IP of KDM6B/WDR5 complex in stem cells from apical papilla; format: cell-based; parameters: endogenous in cells; host or cells: stem cells from apical papilla (SCAPs); conditions: SCAPs treated with polypeptide, compared to control group; FIG. 8A
# Description: Protein was extracted from cells of knockout group and overexpression group using IP lysate. The knockout group cells SCAPs-Scramsh and SCAPs-KDM6Bsh, SCAPs-Scramsh and SCAPs-WDR5sh, BMSCs-Scramsh and BMSCs-WDR5sh were added with KDM6B antibody, WDR5 antibody, and IgG antibody, respectively, and then rotated on a shaker at 4° C. overnight. On the next day, the cells were added with Protein A/G beads and rotated on a rotary shaker at 4° C. for 2 hours. A complex of protein-antibody-agarose bead was formed, and the formation of a protein complex of KDM6B and WDR5WB was detected by WB. The overexpression group cells SCAPs-Vector, SCAPs-HA-KDM6B, SCAPs-HA-KDM6B-mut102, and SCAPs-HA-KDM6B-mut114 were added with ProteinA/G beads with HA antibody, and cells SCAPs Vector and SCAPs-Myc-WDR5 were added with ProteinA/G beads with Myc antibody. All cells were incubated overnight to form a complex of protein-antibody-agarose bead. The formation of a protein complex of KDM6B and WDR5 was detected by WB method. • (2) Grouping: Input group (loading amount of 25 μg); antibody group (loading amount of 800 μg, 2 μg of antibody); IgG group (loading amount of 800 μg, 2 μg of antibody). Samples were diluted with lysate. • (3) Preparation of protein A/G beads
# The protein A/G beads were washed 4 times with PBS, and centrifuged at 2000 g for 2 minutes. […]
Substance,ALP activity [1],ALP activity ([1]; listed as 102-peptide),expression of telomerase reverse transcriptase (ELISA) [2],number of β-gal positive cells (quantification) [3],number of β-gal positive cells (quantification) ([3]; listed as 102 peptide),expression of senescence markers of β-gal and P16 [4],binding of KDM6B to WDR5 (Co-IP) [5],ALP activity ([1]; listed as 114-peptide),expression of telomerase reverse transcriptase (ELISA) ([2]; listed as 114 peptide),number of β-gal positive cells (quantification) ([3]; listed as 114 peptide)
FITC-(Acp)-KEKSRRVLGNLDLQSYGRKKRRQRRR [peptide 102],promoted,6.951,0.03331,significant reduction,7.296,reduce,reduced,–,–,–
FITC-(Acp)-ADLTISHCAADVVRAYGRKKRRQRRR [peptide 114],promoted,–,promoted the expression,significant reduction,–,reduce,reduced,7.612,0.05168,3.978
